Data on one molecule can be found in patent publication US20130095174A1, “Compositions and Methods for Transmucosal Delivery of Lofexidine” (US WORLDMEDS, LLC, priority 2008, published 2013).

This data set is described as follows: In vivo absorption of lofexidine from the sublingual cavity (pharmacokinetics, sublingual vs intravenous). Further details: species or system rabbit. Here is the method: These experiments determine the bioavailability of lofexidine after transmucosal administration to the sublingual tissue in rabbit and compare it to that after intravenous administration.
The transmucosal absorption of lofexidine was measured using an in vivo technique in rabbits. Following introduction of lidocaine local anesthesia, a catheter was placed in the marginal ear artery of the rabbit for blood sample collection. For intravenous administration, a catheter was placed in the marginal ear vein of the rabbit and lofexidine hydrochloride aqueous solution (0.1 mL) was administered; a sterile drug solution was prepared by filtration (double 0.22 μm filters). A dose of 1 mg/kg lofexidine was injected into the marginal ear vein cannula followed by a 0.1 mL flush with 10% (v/v) heparin/normal saline solution to keep the cannula patent.
For sublingual administration, the lofexidine dose (1 mg/kg, 0.1 mL) of the lofexidine formulation was applied to the sublingual mucosa of the rabbit.
Aliquot parts of 1 mL blood samples were collected at predetermined time points, collected into pre-heparinized tubes and immediately placed on ice. Plasma was separated by centrifugation at 3000 rpm for 10 min, placed in polypropylene tubes, and frozen at −20° C. until the time of analysis.
Bioavailability of sublingually administered drug was calculated by comparing the plasma drug concentration between sublingual and intravenous delivery routes and expressed as a percentage of the intravenous bioavailability.
The formulation instilled into the sublingual area of the rabbits in this experiment had the following composition: • Lofexidine hydrochloride 6000 mg • Isopropanol 2 mL • Phosphate buffer (0.05 M, pH 6)
The lofexidine is dissolved in the isopropanol and the phosphate buffer to make the volume up to 200 mL.
The internal standard (IS) solution was prepared by dissolving d^4-lofexidine in a methanol:water (50:50) mixture to get a (1000 ng/mL) concentration. Plasma samples (50 μL) were spiked with IS solution (10 μL), followed by vortex mixing for 1 minute. The mixture was mixed with acetonitrile (50 μL) to precipitate plasma proteins and allowed to vortex for another minute. After centrifugation for 10 minute at 10,000 rpm, the supernatant was collected into HPLC vials in preparation for analysis by Ultra Performance Liquid Chromatography Mass Spectroscopy (UPLC/MS) system.
All analytical procedures were performed using a Waters Acquity® Ultra UPLC/MS. An Acquity UPLC BEH Shield RP18 (2.1×100 mm) column (Waters) was used to separate the chemical components at 40° C. The flow rate was 0.3 mL/min of two mobile phases, (A) made of 5 mM ammonium acetate (pH 4) and acetonitrile (90:10) and (B) of acetonitrile, 5 mM ammonium acetate (pH 4) (90:10). The mass spectrometer was operated in the positive electrospray ionization (ESI) mode. The capillary voltage and cone voltage were maintained at 0.6 kV and 35 V, respectively. The source temperature and desolvation temperature were set at 100 and 350° C., respectively. Nitrogen was used as both the cone gas (50 L/h) and the desolvation gas (700 L/h). Mass chromatograms and mass spectral data were acquired and processed by MassLynx software (Waters).

The mark [1] stands for this setting: rabbit, sublingual administration, 1 mg/kg single dose, rabbits (n = 3), plasma, average.

Broadly, the bioavailability is the share of a dose that reaches the circulation, judged against a reference dose that is usually intravenous. The term Tmax denotes the time from dosing to the highest level. The Cmax is the maximum level reached in the sampled fluid or tissue. In general, half-life refers to the time in which the quantity being followed falls by half. Higher therefore signals slow decline. `CC(Oc1c(Cl)cccc1Cl)C1=NCCN1` (stereo not drawn) [lofexidine, 2-[1-(2,6 dichlorophenoxy)ethyl]-4,5-dihydro-1H-Imidazole]: the bioavailability (rabbit, other: sublingual (transmucosal), sublingual vs intravenous, 1 mg/kg, rabbits, from areas under the plasma concentration versus time curves, read-out: bioavailability (of the administered dose, relative to intravenous)) was roughly 80%. Further, where the note is “rabbit, sublingual administration, 1 mg/kg single dose, rabbits (n = 3), plasma”, the Tmax was 10 min. Besides, under setting [1], the highest concentration (Cmax) was found to be 392 ± 127 ng/mL and the half-life was found to be 75 ± 2.7 min. Further, the “time of peak plasma concentration following transmucosal administration” value (sublingual route, 1 mg/kg, rabbits) is on record as “approximately 10 minutes”. For the same molecule, where the note is “sublingual, 1 mg/kg, rabbits, comparing AUCs with intravenous”, the “absorption following transmucosal administration through the sublingual route” value was “rapidly and completely absorbed”.
